# Columns and labels:
# [1] = test system: Herpes simplex II virus; assay: Back titration plaque assay: PFU counts at stated amounts of compound under test and arginine; type: cell-based, Herpes simplex II virus (BSC cells)
# Description: The following experiments were conducted by back titration: Herpes simplex II virus from laboratory stocks was used. BSC cells were grown to confluence in Eagles medium with 15% fetal calf serum, 150 units per milliliter of penicillin and 100 micrograms per milliliter of streptomycin. The cultures were inoculated with 500 PFU of HS II. The virons were allowed to absorb for one hour at 25° C. The tissue cultures were then washed three times with sterile PBS to remove excess media and non-absorbed virons. The cells were then incubated at 37° C. until four-plus cytopathic effects were observed. The cells were then disrupted by slow freeze-thaw two times. The suspension was then clarified by slow speed centrifugation at 4° C. The supemanant suspension was then added to confluent BSC cultures. After one hour absorption, the cells were washed with PBS twice. The cells were overlaid in defined reagent (in triplicate) Eagles media in noble agar. The cells were then incubated at 37° C. until the plaques were easily counted, usually 40 t 72 hours. the cells were then washed two times with PBS and then fixed with 10% H2CO and a 2% sodium acetate. The cells were then stained in 0.1% crystal violet in ethanol. In the tables which follow the concentration of the compound to be tested, in micrograms per milliliter, is listed across the top of the table and the concentration of arginine in micrograms per milliliter is listed down the left side of the table, the count of plaque-forming units being shown in the matrix.
# [2] = test system: HSV, Type II; assay: Direct plaque-forming unit (PFU) count in BSC cells in defined media with set lysine (or derivative):arginine ratio; type: cell-based; details: average of three tests
# Description: Absorbed virons were absorbed in susceptible cells in chemically defined media and the number of plaques made were counted. (See Davis, B. D., et al., Microbiology, 2nd Ed., Harper & Row, 1973, Part V, and sources cited therein for procedural details and discussion of the plaque method.)
# The cell line chosen was green monkey kidney cells (BSC) that have been passed greater than 41 times. […] The virons were added to a confluent lawn of BSC cells and allowed to absorb at 25° C. for one hour. The unabsorbed virons and the media were removed by washing three times in PBS. […] The control media contained a lysine/arginine ratio of 1:1. The plaques were counted when easily readable. Flasks are done in triplicate.
compound,measurement,setting,value
CC(CN)CC[C@H](N)C(=O)O (stereo partly drawn) [5-Methyl lysine],P.F.U. Count,"[1]; compound 10 μg/ml, arginine 0 μg/ml",30
same,P.F.U. Count,"[1]; compound 10 μg/ml, arginine 2.5 μg/ml",2.7 × 10^3
same,P.F.U. Count,"[1]; compound 10 μg/ml, arginine 5.0 μg/ml",3.7 × 10^4
same,P.F.U. Count,"[1]; compound 10 μg/ml, arginine 7.5 μg/ml",6.0 × 10^4
same,P.F.U. Count,"[1]; compound 10 μg/ml, arginine 10 μg/ml",7.9 × 10^4
same,P.F.U. Count,"[1]; compound 10 μg/ml, arginine 15 μg/ml",2.0 × 10^5
same,P.F.U. Count,"[1]; compound 10 μg/ml, arginine 20 μg/ml",3.0 × 10^5
same,P.F.U. Count,"[1]; compound 10 μg/ml, arginine 25 μg/ml",3.0 × 10^5
same,P.F.U. Count,"[1]; compound 25 μg/ml, arginine 0 μg/ml",0
same,P.F.U. Count,"[1]; compound 25 μg/ml, arginine 2.5 μg/ml",697
same,P.F.U. Count,"[1]; compound 25 μg/ml, arginine 5.0 μg/ml",1.4 × 10^3
same,P.F.U. Count,"[1]; compound 25 μg/ml, arginine 7.5 μg/ml",4.7 × 10^3
same,P.F.U. Count,"[1]; compound 25 μg/ml, arginine 10 μg/ml",6.5 × 10^4
same,P.F.U. Count,"[1]; compound 25 μg/ml, arginine 15 μg/ml",1.7 × 10^4
same,P.F.U. Count,"[1]; compound 25 μg/ml, arginine 20 μg/ml",3.1 × 10^5
same,P.F.U. Count,"[1]; compound 25 μg/ml, arginine 25 μg/ml",3.0 × 10^5
same,P.F.U. Count,"[1]; compound 50 μg/ml, arginine 0 μg/ml",0
same,P.F.U. Count,"[1]; compound 50 μg/ml, arginine 2.5 μg/ml",0
same,P.F.U. Count,"[1]; compound 50 μg/ml, arginine 5.0 μg/ml",190
same,P.F.U. Count,"[1]; compound 50 μg/ml, arginine 7.5 μg/ml",190
same,P.F.U. Count,"[1]; compound 50 μg/ml, arginine 10 μg/ml",1.7 × 10^3
same,P.F.U. Count,"[1]; compound 50 μg/ml, arginine 15 μg/ml",1.3 × 10^3
same,P.F.U. Count,"[1]; compound 50 μg/ml, arginine 20 μg/ml",3.0 × 10^5
same,P.F.U. Count,"[1]; compound 50 μg/ml, arginine 25 μg/ml",3.0 × 10^5
same,P.F.U. Count,"[1]; compound 100 μg/ml, arginine 0 μg/ml",0
same,P.F.U. Count,"[1]; compound 100 μg/ml, arginine 2.5 μg/ml",0
same,P.F.U. Count,"[1]; compound 100 μg/ml, arginine 5.0 μg/ml",69
same,P.F.U. Count,"[1]; compound 100 μg/ml, arginine 7.5 μg/ml",170
same,P.F.U. Count,"[1]; compound 100 μg/ml, arginine 10 μg/ml",656
same,P.F.U. Count,"[1]; compound 100 μg/ml, arginine 15 μg/ml",710
same,P.F.U. Count,"[1]; compound 100 μg/ml, arginine 20 μg/ml",1.2 × 10^5
same,P.F.U. Count,"[1]; compound 100 μg/ml, arginine 25 μg/ml",2.4 × 10^5
same,P.F.U. Count,"[1]; compound 200 μg/ml, arginine 0 μg/ml",0
same,P.F.U. Count,"[1]; compound 200 μg/ml, arginine 2.5 μg/ml",0
same,P.F.U. Count,"[1]; compound 200 μg/ml, arginine 5.0 μg/ml",0
same,P.F.U. Count,"[1]; compound 200 μg/ml, arginine 7.5 μg/ml",0
same,P.F.U. Count,"[1]; compound 200 μg/ml, arginine 10 μg/ml",79
same,P.F.U. Count,"[1]; compound 200 μg/ml, arginine 15 μg/ml",63
same,P.F.U. Count,"[1]; compound 200 μg/ml, arginine 20 μg/ml",2.7 × 10^5
same,P.F.U. Count,"[1]; compound 200 μg/ml, arginine 25 μg/ml",4.1 × 10^5
same,P.F.U. Count,"[1]; compound 300 μg/ml, arginine 0 μg/ml",0
same,P.F.U. Count,"[1]; compound 300 μg/ml, arginine 2.5 μg/ml",0
same,P.F.U. Count,"[1]; compound 300 μg/ml, arginine 5.0 μg/ml",0
same,P.F.U. Count,"[1]; compound 300 μg/ml, arginine 7.5 μg/ml",0
same,P.F.U. Count,"[1]; compound 300 μg/ml, arginine 10 μg/ml",0
same,P.F.U. Count,"[1]; compound 300 μg/ml, arginine 15 μg/ml",1.9 × 10^4
same,P.F.U. Count,"[1]; compound 300 μg/ml, arginine 20 μg/ml",5.6 × 10^4
same,P.F.U. Count,"[1]; compound 300 μg/ml, arginine 25 μg/ml",6.1 × 10^4
same,P.F.U. Count,"[1]; compound 400 μg/ml, arginine 0 μg/ml",0
same,P.F.U. Count,"[1]; compound 400 μg/ml, arginine 2.5 μg/ml",0
same,P.F.U. Count,"[1]; compound 400 μg/ml, arginine 5.0 μg/ml",0
same,P.F.U. Count,"[1]; compound 400 μg/ml, arginine 7.5 μg/ml",0
same,P.F.U. Count,"[1]; compound 400 μg/ml, arginine 10 μg/ml",0
same,P.F.U. Count,"[1]; compound 400 μg/ml, arginine 15 μg/ml",1.9 × 10^4
same,P.F.U. Count,"[1]; compound 400 μg/ml, arginine 20 μg/ml",1.7 × 10^4
same,P.F.U. Count,"[1]; compound 400 μg/ml, arginine 25 μg/ml",4.6 × 10^4
same,P.F.U. Count,"[1]; compound 500 μg/ml, arginine 0 μg/ml",0
same,P.F.U. Count,"[1]; compound 500 μg/ml, arginine 2.5 μg/ml",0
same,P.F.U. Count,"[1]; compound 500 μg/ml, arginine 5.0 μg/ml",0
same,P.F.U. Count,"[1]; compound 500 μg/ml, arginine 7.5 μg/ml",0
same,P.F.U. Count,"[1]; compound 500 μg/ml, arginine 10 μg/ml",0
same,P.F.U. Count,"[1]; compound 500 μg/ml, arginine 15 μg/ml",1.0 × 10^4
same,P.F.U. Count,"[1]; compound 500 μg/ml, arginine 20 μg/ml",2.3 × 10^3
same,P.F.U. Count,"[1]; compound 500 μg/ml, arginine 25 μg/ml",4.0 × 10^4
same,P.F.U. Count,[2]; Compound Ratio to Arginine 10:1,79
same,P.F.U. Count,[2]; Compound Ratio to Arginine 100:1,43
